Laboratory results taken from PubChem BioAssay (NCI).
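Tested at 5 concentrations; 48 h exposure; 96-well plates; endpoints linearly interpolated, else capped at highest concentration. The concentration for full growth arrest is given as TGI.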

Tests used:
Assay in all cases: NCI tumour cell line growth inhibition, 48 h
786-0 renal = system: 786-0 renal
A498 renal = system: A498 renal
A549 NSCLC = system: A549 NSCLC
ACHN renal = system: ACHN renal
BT-549 breast = system: BT-549 breast
CAKI-1 renal = system: CAKI-1 renal
CCRF-CEM leukemia = system: CCRF-CEM leukemia
COLO 205 colon = system: COLO 205 colon
DU-145 prostate = system: DU-145 prostate
EKVX NSCLC = system: EKVX NSCLC
HCC-2998 colon = system: HCC-2998 colon
HCT-116 colon = system: HCT-116 colon
HCT-15 colon = system: HCT-15 colon
HL-60(TB) leukemia = system: HL-60(TB) leukemia
HOP-62 NSCLC = system: HOP-62 NSCLC
HOP-92 NSCLC = system: HOP-92 NSCLC
HS 578T breast = system: HS 578T breast
HT29 colon = system: HT29 colon
IGROV1 ovarian = system: IGROV1 ovarian
K-562 leukemia = system: K-562 leukemia
KM12 colon = system: KM12 colon
LOX IMVI melanoma = system: LOX IMVI melanoma
M14 melanoma = system: M14 melanoma
MCF7 breast = system: MCF7 breast
MDA-MB-231 breast = system: MDA-MB-231 breast
MDA-MB-435 = system: MDA-MB-435
MDA-N = system: MDA-N
MOLT-4 leukemia = system: MOLT-4 leukemia
NCI-H226 lung = system: NCI-H226 lung
NCI-H23 lung = system: NCI-H23 lung
NCI-H460 lung = system: NCI-H460 lung
NCI-H522 lung = system: NCI-H522 lung
NCI/ADR-RES ovarian = system: NCI/ADR-RES ovarian
OVCAR-3 ovarian = system: OVCAR-3 ovarian
OVCAR-5 ovarian = system: OVCAR-5 ovarian
OVCAR-8 ovarian = system: OVCAR-8 ovarian
PC-3 prostate = system: PC-3 prostate
RXF 393 renal = system: RXF 393 renal
SF-268 CNS = system: SF-268 CNS
SF-295 CNS = system: SF-295 CNS
SF-539 CNS = system: SF-539 CNS
SK-MEL-2 melanoma = system: SK-MEL-2 melanoma
SK-MEL-28 melanoma = system: SK-MEL-28 melanoma
SK-MEL-5 melanoma = system: SK-MEL-5 melanoma
SK-OV-3 ovarian = system: SK-OV-3 ovarian
SN12C renal = system: SN12C renal
SNB-19 CNS = system: SNB-19 CNS
SNB-75 CNS = system: SNB-75 CNS
SR leukemia = system: SR leukemia
SW-620 colon = system: SW-620 colon
T-47D breast = system: T-47D breast
TK-10 renal = system: TK-10 renal
U251 CNS = system: U251 CNS
UACC-257 melanoma = system: UACC-257 melanoma
UACC-62 melanoma = system: UACC-62 melanoma
UO-31 renal = system: UO-31 renal
MALME-3M melanoma = system: MALME-3M melanoma
OVCAR-4 ovarian = system: OVCAR-4 ovarian

## O=C1C(Cl)=C(N2C(=O)CCC2=O)C(=O)c2ccccc21
786-0 renal
  TGI: 37.9 µM
A498 renal
  TGI: > 100 µM
A549 NSCLC
  TGI: > 100 µM
ACHN renal
  TGI: 29.1 µM
BT-549 breast
  TGI: 37.3 µM
CAKI-1 renal
  TGI: 38.1 µM
CCRF-CEM leukemia
  TGI: 21.8 µM
COLO 205 colon
  TGI: 32.8 µM
DU-145 prostate
  TGI: 95 µM
EKVX NSCLC
  TGI: > 100 µM
HCC-2998 colon
  TGI: 60.3 µM
HCT-116 colon
  TGI: 49.7 µM
HCT-15 colon
  TGI: 27.2 µM
HL-60(TB) leukemia
  TGI: 6.73 µM
HOP-62 NSCLC
  TGI: > 100 µM
HOP-92 NSCLC
  TGI: 26.6 µM
HS 578T breast
  TGI: > 100 µM
HT29 colon
  TGI: > 100 µM
IGROV1 ovarian
  TGI: > 100 µM
K-562 leukemia
  TGI: 17.1 µM
KM12 colon
  TGI: > 100 µM
LOX IMVI melanoma
  TGI: 86.4 µM
M14 melanoma
  TGI: > 100 µM
MCF7 breast
  TGI: 33.7 µM
MDA-MB-231 breast
  TGI: > 100 µM
MDA-MB-435
  TGI: 44 µM
MDA-N
  TGI: 35 µM
MOLT-4 leukemia
  TGI: > 100 µM
NCI-H226 lung
  TGI: > 100 µM
NCI-H23 lung
  TGI: 79.8 µM
NCI-H460 lung
  TGI: > 100 µM
NCI-H522 lung
  TGI: 59.6 µM
NCI/ADR-RES ovarian
  TGI: > 100 µM
OVCAR-3 ovarian
  TGI: 34.3 µM
OVCAR-5 ovarian
  TGI: 49.7 µM
OVCAR-8 ovarian
  TGI: > 100 µM
PC-3 prostate
  TGI: > 100 µM
RXF 393 renal
  TGI: 45.7 µM
SF-268 CNS
  TGI: > 100 µM
SF-295 CNS
  TGI: > 100 µM
SF-539 CNS
  TGI: > 100 µM
SK-MEL-2 melanoma
  TGI: > 100 µM
SK-MEL-28 melanoma
  TGI: 48 µM
SK-MEL-5 melanoma
  TGI: 36.7 µM
SK-OV-3 ovarian
  TGI: > 100 µM
SN12C renal
  TGI: 33.6 µM
SNB-19 CNS
  TGI: > 100 µM
SNB-75 CNS
  TGI: > 100 µM
SR leukemia
  TGI: 82.5 µM
SW-620 colon
  TGI: 56.9 µM
T-47D breast
  TGI: > 100 µM
TK-10 renal
  TGI: > 100 µM
U251 CNS
  TGI: 63.3 µM
UACC-257 melanoma
  TGI: 57.5 µM
UACC-62 melanoma
  TGI: > 100 µM
UO-31 renal
  TGI: 34.4 µM

## CC[C@]12C=CCN3CC[C@@]4(c5cc(N=O)c(OC)cc5N(C)[C@H]4[C@@](O)(C(=O)NC(Cc4c[nH]c5ccccc45)C(=O)OC)[C@@H]1O)[C@@H]32 (some centres undefined)
786-0 renal
  TGI: > 100 µM
A498 renal
  TGI: > 100 µM
A549 NSCLC
  TGI: > 100 µM
ACHN renal
  TGI: 35.5 µM
BT-549 breast
  TGI: 29.8 µM
CAKI-1 renal
  TGI: 31.9 µM
CCRF-CEM leukemia
  TGI: 24.3 µM
COLO 205 colon
  TGI: 29.2 µM
DU-145 prostate
  TGI: 30.9 µM
EKVX NSCLC
  TGI: 52.2 µM
HCC-2998 colon
  TGI: 29 µM
HCT-116 colon
  TGI: 28.3 µM
HCT-15 colon
  TGI: 44.7 µM
HL-60(TB) leukemia
  TGI: 14.7 µM
HOP-62 NSCLC
  TGI: 34.6 µM
HOP-92 NSCLC
  TGI: 28.8 µM
HS 578T breast
  TGI: > 100 µM
HT29 colon
  TGI: 29.3 µM
IGROV1 ovarian
  TGI: 34.9 µM
K-562 leukemia
  TGI: 31.4 µM
KM12 colon
  TGI: 26.1 µM
LOX IMVI melanoma
  TGI: 47 µM
M14 melanoma
  TGI: 41.1 µM
MALME-3M melanoma
  TGI: 34.8 µM
MCF7 breast
  TGI: 35.2 µM
MDA-MB-231 breast
  TGI: 34.7 µM
MDA-MB-435
  TGI: 33.3 µM
MDA-N
  TGI: 46.6 µM
MOLT-4 leukemia
  TGI: 27.9 µM
NCI-H226 lung
  TGI: 52.4 µM
NCI-H23 lung
  TGI: 38.5 µM
NCI-H460 lung
  TGI: 38.7 µM
NCI-H522 lung
  TGI: 6.75 µM
NCI/ADR-RES ovarian
  TGI: > 100 µM
OVCAR-3 ovarian
  TGI: 28.6 µM
OVCAR-4 ovarian
  TGI: 29.2 µM
OVCAR-5 ovarian
  TGI: 43.1 µM
OVCAR-8 ovarian
  TGI: 42.6 µM
PC-3 prostate
  TGI: 23.9 µM
RXF 393 renal
  TGI: 26.9 µM
SF-268 CNS
  TGI: > 100 µM
SF-295 CNS
  TGI: 32.7 µM
SF-539 CNS
  TGI: 30.5 µM
SK-MEL-2 melanoma
  TGI: 34.1 µM
SK-MEL-28 melanoma
  TGI: 86.8 µM
SK-MEL-5 melanoma
  TGI: 28 µM
SK-OV-3 ovarian
  TGI: 38.9 µM
SN12C renal
  TGI: 71.5 µM
SNB-19 CNS
  TGI: 71.3 µM
SNB-75 CNS
  TGI: 29.4 µM
SR leukemia
  TGI: 54.7 µM
SW-620 colon
  TGI: 29.7 µM
T-47D breast
  TGI: 32 µM
TK-10 renal
  TGI: 31.7 µM
U251 CNS
  TGI: 21.7 µM
UACC-257 melanoma
  TGI: 29.6 µM
UACC-62 melanoma
  TGI: 29.6 µM
UO-31 renal
  TGI: 45.3 µM
